Drawing on PMC2248166, “Quantitative peptide binding motifs for 19 human and mouse MHC class I molecules derived using positional scanning combinatorial peptide libraries” (Immunome Research, 2008), this text covers IC50 for 28 compounds.

Structures are written as SMILES. Where a SMILES comes first, the peptide text is derived from it.

This assay has as its target HLA B*0801 (Homo sapiens, UniProt P01889, A93T/A95T/D138N/E176V/E187T/K202T/Q94N/R180D/S35A/V36M/Y33D/Y91F). Kind of assay: biochemical. Type of assay: binding.
Consider `CC[C@H](C)[C@H](NC(=O)[C@@H](N)CO)C(=O)N[C@@H](CCCCN)C(=O)N[C@@H](CO)C(=O)N[C@@H](CCCCN)C(=O)N[C@@H](CO)C(=O)N[C@@H](CCCNC(=N)N)C(=O)N[C@@H](CCCNC(=N)N)C(=O)N[C@@H](CC(C)C)C(=O)O` [3102.0534] (H-SIKSKSRRL-OH), for which the half-maximal inhibitory concentration (IC50) was 0.03 µM.

As to `CC[C@H](C)[C@H](NC(=O)[C@H](CCCCN)NC(=O)[C@@H](NC(=O)[C@H](CCCNC(=N)N)NC(=O)[C@H](CC(C)C)NC(=O)[C@H](CC(N)=O)NC(=O)[C@H](CC(C)C)NC(=O)[C@@H](N)CO)[C@@H](C)CC)C(=O)N[C@@H](CC(C)C)C(=O)O` [3102.0536] (H-SLNLRIKIL-OH), the IC50 came out at 0.092 µM. The result for `CC[C@H](C)[C@H](N)C(=O)N[C@@H](CC(C)C)C(=O)N[C@@H](CCCNC(=N)N)C(=O)N[C@@H](CCCCN)C(=O)N[C@H](C(=O)N[C@@H](Cc1ccccc1)C(=O)N[C@@H](Cc1ccc(O)cc1)C(=O)N[C@@H](CO)C(=O)N[C@H](C(=O)O)C(C)C)[C@@H](C)CC` [3102.0538] (H-ILRKIFYSV-OH) reads 0.0001 µM; that for `CC[C@H](C)[C@H](NC(=O)[C@H](Cc1ccc(O)cc1)NC(=O)[C@H](CCSC)NC(=O)[C@H](CC(C)C)NC(=O)[C@@H](N)CCC(=O)O)C(=O)N[C@@H](Cc1ccccc1)C(=O)N[C@@H](C)C(=O)N[C@@H](C)C(=O)N[C@@H](CC(C)C)C(=O)O` [3102.0539] (H-ELMYIFAAL-OH), 0.03 µM; that for `CC[C@H](C)[C@H](NC(=O)[C@H](CO)NC(=O)[C@H](CC(C)C)NC(=O)[C@H](CCSC)NC(=O)[C@H](CO)NC(=O)[C@H](CCCNC(=N)N)NC(=O)[C@@H]1CCCN1C(=O)[C@@H](N)Cc1ccccc1)C(=O)N[C@@H](Cc1ccccc1)C(=O)O` [3102.0543] (H-FPRSMLSIF-OH), 0.0099 µM.

The compound `CSCC[C@H](N)C(=O)N[C@@H](CCCNC(=N)N)C(=O)N[C@@H](Cc1ccccc1)C(=O)N[C@@H](CCCCN)C(=O)N[C@@H](CCCCN)C(=O)N[C@@H](CCC(=O)O)C(=O)N[C@@H](CO)C(=O)N[C@@H](CO)C(=O)N[C@@H](CC(C)C)C(=O)O` [3102.0545] (H-MRFKKESSL-OH) gave an IC50 of 0.0034 µM. The result for `CC[C@H](C)[C@H](NC(=O)[C@H](CO)NC(=O)[C@H](CC(C)C)NC(=O)[C@H](CC(C)C)NC(=O)[C@H](CCCNC(=N)N)NC(=O)[C@H](CCSC)NC(=O)[C@H](CCC(=O)O)NC(=O)[C@H](C)NC(=O)[C@@H](N)CO)C(=O)O` [3102.0547] (H-SAEMRLLSI-OH) reads 0.021 µM; that for `CC(C)C[C@H](NC(=O)[C@H](CC(N)=O)NC(=O)[C@H](Cc1ccc(O)cc1)NC(=O)[C@H](Cc1ccccc1)NC(=O)[C@H](Cc1c[nH]cn1)NC(=O)[C@H](CC(=O)O)NC(=O)[C@H](CCCNC(=N)N)NC(=O)[C@H](CC(C)C)NC(=O)[C@@H](N)Cc1ccc(O)cc1)C(=O)O` [3102.0548] (H-YLRDHFYNL-OH), 0.0083 µM. The compound `CC[C@H](C)[C@H](NC(=O)CNC(=O)[C@H](Cc1c[nH]cn1)NC(=O)[C@H](CCCNC(=N)N)NC(=O)[C@H](CCC(N)=O)NC(=O)[C@H](CC(C)C)NC(=O)[C@H](CCCCN)NC(=O)[C@@H](N)CO)C(=O)N[C@@H](CC(C)C)C(=O)O` [3102.0549] (H-SKLQRHGIL-OH) returned a half-inhibitory concentration (IC50) of 0.016 µM.

The compound `CC[C@H](C)[C@H](NC(=O)[C@@H](N)CO)C(=O)N[C@@H](Cc1c[nH]cn1)C(=O)N[C@@H](CCC(=O)O)C(=O)N[C@@H](CCCCN)C(=O)N[C@@H](Cc1ccccc1)C(=O)N[C@@H](Cc1c[nH]c2ccccc12)C(=O)N1CCC[C@H]1C(=O)N[C@@H](CC(C)C)C(=O)O` [3102.0550] (H-SIHEKFWPL-OH) yielded a concentration for half-maximal inhibition (IC50) of 0.0014 µM. Compound `CC[C@H](C)[C@H](NC(=O)[C@H](Cc1ccc(O)cc1)NC(=O)[C@H](C)NC(=O)[C@@H]1CCCN1C(=O)[C@@H](N)CCSC)C(=O)N[C@@H](CCCNC(=N)N)C(=O)N[C@@H](CC(N)=O)C(=O)N[C@H](C(=O)N[C@@H](CC(C)C)C(=O)O)[C@@H](C)O` [3102.0553] returned a 50% inhibitory concentration (IC50) of 0.0014 µM. The result for `CC(C)[C@H](NC(=O)[C@H](Cc1ccccc1)NC(=O)[C@H](CS)NC(=O)[C@@H](NC(=O)[C@H](CCCCN)NC(=O)[C@H](CCCCN)NC(=O)[C@H](CCCCN)NC(=O)[C@H](CO)NC(=O)[C@@H](N)Cc1ccccc1)C(C)C)C(=O)O` [3102.0556] (H-FSKKKVCFV-OH) reads 0.006 µM; that for `CSCC[C@H](NC(=O)[C@H](C)NC(=O)[C@@H](NC(=O)[C@@H](N)C(C)C)C(C)C)C(=O)N[C@@H](CCCNC(=N)N)C(=O)N[C@@H](Cc1c[nH]cn1)C(=O)N[C@@H](CC(C)C)C(=O)N[C@@H](CO)C(=O)N[C@@H](CC(C)C)C(=O)O` [3102.0557] (H-VVAMRHLSL-OH), 0.00098 µM; that for `CC[C@H](C)[C@H](NC(=O)[C@H](CCCNC(=N)N)NC(=O)[C@H](CCCCN)NC(=O)[C@H](CCSC)NC(=O)[C@@H](NC(=O)[C@@H](N)CC(N)=O)C(C)C)C(=O)N[C@@H](CC(N)=O)C(=O)N[C@@H](CS)C(=O)N[C@@H](Cc1ccccc1)C(=O)O` [3102.0558] (H-NVMKRINCF-OH), 0.02 µM. The result for `CC[C@H](C)[C@H](NC(=O)[C@H](Cc1ccccc1)NC(=O)[C@H](Cc1ccccc1)NC(=O)[C@@H](N)CCSC)C(=O)N[C@@H](CCCNC(=N)N)C(=O)N[C@@H](Cc1ccccc1)C(=O)NCC(=O)N[C@@H](CCCCN)C(=O)N[C@@H](CCSC)C(=O)O` [3102.0559] (H-MFFIRFGKM-OH) reads 0.032 µM; that for `CSCC[C@H](NC(=O)[C@H](C)NC(=O)[C@H](CC(C)C)NC(=O)[C@H](CO)NC(=O)[C@H](CCCCN)NC(=O)[C@H](CCSC)NC(=O)[C@H](CCCNC(=N)N)NC(=O)[C@H](CCCCN)NC(=O)[C@@H](N)CC(=O)O)C(=O)O` [3102.0560] (H-DKRMKSLAM-OH), 0.0099 µM; that for `CC[C@H](C)[C@H](NC(=O)[C@H](C)NC(=O)[C@H](CC(C)C)NC(=O)[C@@H](NC(=O)[C@H](CCCCN)NC(=O)[C@H](CCCNC(=N)N)NC(=O)[C@H](CCCCN)NC(=O)[C@H](CC(N)=O)NC(=O)[C@@H](N)CO)C(C)C)C(=O)O` [3102.0561] (H-SNKRKVLAI-OH), 0.0019 µM. Compound `CC(C)C[C@H](NC(=O)[C@H](CS)NC(=O)[C@H](CCC(=O)O)NC(=O)[C@H](CCCCN)NC(=O)[C@H](Cc1c[nH]cn1)NC(=O)[C@H](CC(C)C)NC(=O)[C@H](CCCNC(=N)N)NC(=O)[C@H](CC(N)=O)NC(=O)[C@@H](N)CCC(=O)O)C(=O)O` [3102.0562] (H-ENRLHKECL-OH) had an IC50 of 0.073 µM. In the case of `C[C@H](NC(=O)[C@H](CCCCN)NC(=O)[C@H](Cc1ccccc1)NC(=O)[C@H](CCCCN)NC(=O)[C@H](CC(=O)O)NC(=O)[C@H](CCCNC(=N)N)NC(=O)[C@H](CC(N)=O)NC(=O)[C@@H](N)Cc1ccc(O)cc1)C(=O)N[C@@H](Cc1ccccc1)C(=O)O` [3102.0564] (H-YNRDKFKAF-OH), the IC50 amounted to 0.02 µM. Take `CC(C)C[C@H](NC(=O)[C@H](Cc1ccccc1)NC(=O)[C@H](C)NC(=O)[C@H](Cc1ccccc1)NC(=O)[C@H](CCCNC(=N)N)NC(=O)[C@H](Cc1ccc(O)cc1)NC(=O)[C@H](CCCNC(=N)N)NC(=O)[C@H](CC(N)=O)NC(=O)[C@@H](N)CC(N)=O)C(=O)O` [3102.0568] (H-NNRYRFAFL-OH): the midpoint of inhibition, the IC50, lay at 0.031 µM. Next, `CC(C)[C@H](NC(=O)[C@H](CC(N)=O)NC(=O)[C@H](C)NC(=O)[C@H](Cc1ccccc1)NC(=O)[C@H](CCCCN)NC(=O)[C@H](CCCCN)NC(=O)[C@H](Cc1c[nH]cn1)NC(=O)[C@H](CCCNC(=N)N)NC(=O)[C@@H](N)CC(N)=O)C(=O)O` [3102.0572] (H-NRHKKFANV-OH): 0.036 µM. Turning to `CC[C@H](C)[C@H](NC(=O)[C@@H]1CCCN1C(=O)[C@@H](NC(=O)[C@H](Cc1c[nH]cn1)NC(=O)[C@H](Cc1ccc(O)cc1)NC(=O)[C@H](CCCCN)NC(=O)[C@H](CCCNC(=N)N)NC(=O)[C@@H](N)Cc1ccc(O)cc1)C(C)C)C(=O)N[C@@H](CCSC)C(=O)O` [3102.0573] (H-YRKYHVPIM-OH), half-maximal inhibition (IC50) was put at 0.062 µM. Next, `CC[C@H](C)[C@H](NC(=O)[C@H](CCCNC(=N)N)NC(=O)[C@H](CCCNC(=N)N)NC(=O)[C@H](CCSC)NC(=O)[C@H](CC(C)C)NC(=O)[C@H](C)NC(=O)[C@@H](N)CC(N)=O)C(=O)N[C@@H](C)C(=O)N[C@H](C(=O)O)C(C)C` [3102.0577] (H-NALMRRIAV-OH): 0.017 µM; `CC[C@H](C)[C@H](NC(=O)[C@H](Cc1ccc(O)cc1)NC(=O)[C@@H](NC(=O)[C@H](CCCCN)NC(=O)[C@H](CCCCN)NC(=O)[C@H](Cc1ccccc1)NC(=O)[C@H](CCCNC(=N)N)NC(=O)[C@@H](N)CO)C(C)C)C(=O)N[C@@H](CC(C)C)C(=O)O` [3102.0579] (H-SRFKKVYIL-OH): 0.076 µM. As for `CC[C@H](C)[C@H](NC(=O)[C@H](Cc1c[nH]cn1)NC(=O)[C@H](Cc1ccccc1)NC(=O)[C@H](CCCCN)NC(=O)[C@H](CC(C)C)NC(=O)[C@H](CCCNC(=N)N)NC(=O)[C@H](CS)NC(=O)[C@@H](N)Cc1c[nH]c2ccccc12)C(=O)N[C@H](C(=O)O)C(C)C` [3102.0584] (H-WCRLKFHIV-OH), 0.082 µM corresponded to half-maximal inhibition (IC50). The result for `CC[C@H](C)[C@H](NC(=O)[C@H](CO)NC(=O)[C@@H](NC(=O)[C@H](CC(C)C)NC(=O)[C@H](CCCCN)NC(=O)[C@H](CCSC)NC(=O)[C@H](CCCCN)NC(=O)[C@@H](NC(=O)[C@@H](N)CO)[C@@H](C)CC)C(C)C)C(=O)O` [3102.0585] (H-SIKMKLVSI-OH) reads 0.016 µM. Next, `CSCC[C@H](NC(=O)[C@H](CCC(N)=O)NC(=O)[C@@H](N)CO)C(=O)N[C@@H](CCC(=O)O)C(=O)N[C@@H](CCCNC(=N)N)C(=O)N[C@@H](Cc1ccccc1)C(=O)N[C@@H](CC(N)=O)C(=O)N[C@@H](CS)C(=O)N[C@@H](CO)C(=O)O` [3102.0586] (H-SQMERFNCS-OH): 0.039 µM; `CC(C)C[C@H](NC(=O)[C@H](Cc1ccccc1)NC(=O)[C@H](Cc1ccc(O)cc1)NC(=O)[C@H](CC(C)C)NC(=O)[C@H](CCCNC(=N)N)NC(=O)[C@H](CCC(N)=O)NC(=O)[C@H](CC(C)C)NC(=O)[C@H](Cc1ccccc1)NC(=O)[C@@H](N)Cc1ccccc1)C(=O)O` [3102.0589] (H-FFLQRLYFL-OH): 0.0068 µM.

By IC50 is commonly meant the midpoint of a concentration-inhibition curve.
